Laboratory results taken from patent US12564193B2, “Isoxazoline-substituted benzamide derivative, and preparation method therefor and use thereof” (SHANDONG UNITED PESTICIDE INDUSTRY CO., LTD., priority 2020, dated 2026).
Where two headings read alike, the source gives them in different places.

Legend:
Type in all cases: in vivo
[1] = test system: Frankliniella occidentalis; experiment: Insecticidal activity, spray on pre-infested radish plants: Frankliniella occidentalis; details: for pest or weed control at 1 ppm / pest or weed control at 10 ppm / pest or weed control at 25 ppm: Frankliniella occidentalis, 144 h, read-out: fatality rate on Frankliniella occidentalis; for Fatality rate on Frankliniella occidentalis (%): Table 3
Experimental: (§1) For determination of insecticidal activity, the test method was as follows: a test solution with a desired concentration was prepared by dissolving a test compound sample in a suitable solvent (the kind of solvent was such as acetone, methanol, DMSO, etc., and was selected according to its dissolving ability for the sample). The test cell was composed of a small open container with 12-15 day old radish plants inside. The plants were pre-infested by placing 30-40 pests located on one leaf cut from the cultivated plant on one leaf of the test plant (leaf cutting method). As the leaves dehydrated, the pests moved on the test plants. After the pre-infesting, the soil of the test cells was covered with a layer of sand.
The test method was as follows: the test was repeated for three times, and after spraying the formulated test compound, each test unit was allowed to dry for 1 hour, and then a black mesh cover was placed at the top. The test units were kept in a growth chamber at 25° C. and 70% relative humidity for 6 days. The mortality (fatality rate) of the insects was then visually assessed for each test unit, and the fatality rate was calculated as follows:
[formula] (1) Test Results for the Control of Frankliniella occidentalis by Exemplary Example Compounds

[2] = test system: Plutella xylostella; experiment: Insecticidal activity, spray on pre-infested radish plants: Plutella xylostella; details: for pest or weed control at 0.1 ppm / pest or weed control at 1 ppm / pest or weed control at 10 ppm: Plutella xylostella, 144 h, read-out: fatality rate on Plutella xylostella; for Fatality rate on Plutella xylostella (%): Table 3
Experimental: as §1
(§2) The test method was as follows: the test was repeated for three times, and after spraying the formulated test compound, each test unit was allowed to dry for 1 hour, and then a black mesh cover was placed at the top. The test units were kept in a growth chamber at 25° C. and 70% relative humidity for 6 days. The mortality (fatality rate) of the insects was then visually assessed for each test unit, and the fatality rate was calculated as follows: […]

[3] = test system: Pieris rapae; experiment: Insecticidal activity, spray on pre-infested radish plants: Pieris rapae; details: 144 h, read-out: fatality rate on Pieris rapae
Experimental: as §1, §2

[4] = test system: Mythimna separata; experiment: Insecticidal activity, spray on pre-infested radish plants: Mythimna separata; details: for pest or weed control at 0.1 ppm / pest or weed control at 1 ppm / pest or weed control at 10 ppm: Mythimna separata, 144 h, read-out: fatality rate on Mythimna separata; for Fatality rate on Mythimna separata (%): Table 3
Experimental: as §1, §2

[5] = test system: Spodoptera litura; experiment: Insecticidal activity, spray on pre-infested radish plants: Spodoptera litura; details: 144 h, read-out: fatality rate on Spodoptera litura
Experimental: as §1, §2

[6] = test system: Chilo suppressalis; experiment: Insecticidal activity, spray on pre-infested radish plants: Chilo suppressalis; details: for pest or weed control at 0.1 ppm / pest or weed control at 1 ppm / pest or weed control at 10 ppm: Chilo suppressalis, 144 h, read-out: fatality rate on Chilo suppressalis; for Fatality rate on Chilo suppressalis (%): Table 3
Experimental: as §1, §2

[7] = test system: Cnaphalocrocis medinalis; experiment: Insecticidal activity, spray on pre-infested radish plants: Cnaphalocrocis medinalis; details: 144 h, read-out: fatality rate on Cnaphalocrocis medinalis
Experimental: as §1, §2

[8] = test system: Tetranychus cinnabarinus; experiment: Acaricidal activity, slide immersion of female adult mites: Tetranychus cinnabarinus; details: read-out: fatality rate on Tetranychus cinnabarinus
Experimental: The test method was as follows: a test solution with a desired concentration was prepared by dissolving a test compound sample in a suitable solvent (the kind of solvent was such as acetone, methanol, DMSO, etc., and was selected according to its dissolving ability for the sample). A double-sided adhesive tape was cut into 2-3 cm long pieces, the pieces were attached to one end of a microscope slide, paper pieces on the adhesive tape were removed using tweezers, female adult mites which were consistent in size, bright in body color and lively in action were selected using a zero-size brush pen, the backs of the female adult mites were adhered to the double-sided adhesive tape (note: the adhesion should not cover mite feet, mite whiskers and mouthparts), with 4 rows of mites adhered to each piece and 10 heads of the mites adhered to each row.
One end of the glass slide with the mites was immersed into a drug liquid, with slightly shaking for 5 seconds, and then the slide was taken out. The excess drug liquid around the mite body and is surroundings is quickly sucked off using absorbent paper. The slide was placed in the biochemical incubator described above, and the results were checked by using binoculars after 24 hours. The mites were slightly touched by using a brush pen, the mites with immobility in feet were considered to be dead, and the fatality rate was calculated. The fatality rate was calculated as follows: […]

[9] = dose 1 ppm, immersion 5 seconds, checked after 24 hours
[10] = dose 10 ppm, immersion 5 seconds, checked after 24 hours
[11] = dose 25 ppm, immersion 5 seconds, checked after 24 hours

Cc1cc(C2=NOC(c3cc(F)c(F)c(F)c3)(C(F)(F)F)C2)ccc1C(=O)NCc1cnc(Cl)cc1C(F)(F)F (stereo not drawn) [Compound 6]
> 80%: pest or weed control at 1 ppm ([1]; dose 1 ppm, spray, 6 days) | pest or weed control at 10 ppm ([1]; dose 10 ppm, spray, 6 days) | pest or weed control at 25 ppm ([1]; dose 25 ppm, spray, 6 days) | pest or weed control at 0.1 ppm ([2]; dose 0.1 ppm, spray, 6 days) | pest or weed control at 1 ppm ([2]; dose 1 ppm, spray, 6 days) | pest or weed control at 10 ppm ([2]; dose 10 ppm, spray, 6 days) | pest or weed control at 0.1 ppm ([3]; dose 0.1 ppm, spray, 6 days) | pest or weed control at 1 ppm ([3]; dose 1 ppm, spray, 6 days) | pest or weed control at 10 ppm ([3]; dose 10 ppm, spray, 6 days) | pest or weed control at 0.1 ppm ([4]; dose 0.1 ppm, spray, 6 days) | pest or weed control at 1 ppm ([4]; dose 1 ppm, spray, 6 days) | pest or weed control at 10 ppm ([4]; dose 10 ppm, spray, 6 days) | pest or weed control at 0.1 ppm ([5]; dose 0.1 ppm, spray, 6 days) | pest or weed control at 1 ppm ([5]; dose 1 ppm, spray, 6 days) | pest or weed control at 10 ppm ([5]; dose 10 ppm, spray, 6 days) | pest or weed control at 0.1 ppm ([6]; dose 0.1 ppm, spray, 6 days) | pest or weed control at 1 ppm ([6]; dose 1 ppm, spray, 6 days) | pest or weed control at 10 ppm ([6]; dose 10 ppm, spray, 6 days) | pest or weed control at 0.1 ppm ([7]; dose 0.1 ppm, spray, 6 days) | pest or weed control at 1 ppm ([7]; dose 1 ppm, spray, 6 days) | pest or weed control at 10 ppm ([7]; dose 10 ppm, spray, 6 days) | pest or weed control at 1 ppm [8, 9] | pest or weed control at 10 ppm [8, 10] | pest or weed control at 25 ppm [8, 11]

Cc1cc(C2=NOC(c3cc(Cl)c(F)c(Cl)c3)(C(F)(F)F)C2)ccc1C(=O)NCc1cnc(Cl)cc1Cl (stereo not drawn) [Compound 7]
> 80%: pest or weed control at 1 ppm [1] | pest or weed control at 10 ppm [1] | pest or weed control at 25 ppm [1] | pest or weed control at 0.1 ppm [2] | pest or weed control at 1 ppm [2] | pest or weed control at 10 ppm [2] | pest or weed control at 0.1 ppm [3] | pest or weed control at 1 ppm [3] | pest or weed control at 10 ppm [3] | pest or weed control at 0.1 ppm [4] | pest or weed control at 1 ppm [4] | pest or weed control at 10 ppm [4] | pest or weed control at 0.1 ppm [5] | pest or weed control at 1 ppm [5] | pest or weed control at 10 ppm [5] | pest or weed control at 0.1 ppm [6] | pest or weed control at 1 ppm [6] | pest or weed control at 10 ppm [6] | pest or weed control at 0.1 ppm [7] | pest or weed control at 1 ppm [7] | pest or weed control at 10 ppm [7] | pest or weed control at 1 ppm ([8]; 24 h) | pest or weed control at 10 ppm ([8]; 24 h) | pest or weed control at 25 ppm ([8]; 24 h)

Cc1cc(C2=NOC(c3cc(F)c(F)c(F)c3)(C(F)(F)F)C2)ccc1C(=O)NCc1cnc(Cl)cc1Cl (stereo not drawn) [Compound 8]
> 80%: pest or weed control at 1 ppm ([1]; dose 1 ppm, spray, 6 days) | pest or weed control at 10 ppm ([1]; dose 10 ppm, spray, 6 days) | pest or weed control at 25 ppm ([1]; dose 25 ppm, spray, 6 days) | pest or weed control at 0.1 ppm ([2]; dose 0.1 ppm, spray, 6 days) | pest or weed control at 1 ppm ([2]; dose 1 ppm, spray, 6 days) | pest or weed control at 10 ppm ([2]; dose 10 ppm, spray, 6 days) | pest or weed control at 0.1 ppm ([3]; dose 0.1 ppm, spray, 6 days) | pest or weed control at 1 ppm ([3]; dose 1 ppm, spray, 6 days) | pest or weed control at 10 ppm ([3]; dose 10 ppm, spray, 6 days) | pest or weed control at 0.1 ppm ([4]; dose 0.1 ppm, spray, 6 days) | pest or weed control at 1 ppm ([4]; dose 1 ppm, spray, 6 days) | pest or weed control at 10 ppm ([4]; dose 10 ppm, spray, 6 days) | pest or weed control at 0.1 ppm ([5]; dose 0.1 ppm, spray, 6 days) | pest or weed control at 1 ppm ([5]; dose 1 ppm, spray, 6 days) | pest or weed control at 10 ppm ([5]; dose 10 ppm, spray, 6 days) | pest or weed control at 0.1 ppm ([6]; dose 0.1 ppm, spray, 6 days) | pest or weed control at 1 ppm ([6]; dose 1 ppm, spray, 6 days) | pest or weed control at 10 ppm ([6]; dose 10 ppm, spray, 6 days) | pest or weed control at 0.1 ppm ([7]; dose 0.1 ppm, spray, 6 days) | pest or weed control at 1 ppm ([7]; dose 1 ppm, spray, 6 days) | pest or weed control at 10 ppm ([7]; dose 10 ppm, spray, 6 days) | pest or weed control at 1 ppm [8, 9] | pest or weed control at 10 ppm [8, 10] | pest or weed control at 25 ppm [8, 11]

Cc1cc(C2=NOC(c3cc(Cl)c(F)c(Cl)c3)(C(F)(F)F)C2)ccc1C(=O)NCc1ncc(C(F)(F)F)cc1Cl (stereo not drawn) [Compound 9, N-((3-chloro-5-(trifluoromethyl)pyridin-2-yl)methyl)-4-(5-(3,5-dichloro-4-fluorophenyl)-5-(trifluoromethyl)-4,5-dihydroisoxazol-3-yl)-2-methylbenzamide]
> 80%: pest or weed control at 1 ppm [1] | pest or weed control at 10 ppm [1] | pest or weed control at 25 ppm [1] | pest or weed control at 0.1 ppm [2] | pest or weed control at 1 ppm [2] | pest or weed control at 10 ppm [2] | pest or weed control at 0.1 ppm [3] | pest or weed control at 1 ppm [3] | pest or weed control at 10 ppm [3] | pest or weed control at 0.1 ppm [4] | pest or weed control at 1 ppm [4] | pest or weed control at 10 ppm [4] | pest or weed control at 0.1 ppm [5] | pest or weed control at 1 ppm [5] | pest or weed control at 10 ppm [5] | pest or weed control at 0.1 ppm [6] | pest or weed control at 1 ppm [6] | pest or weed control at 10 ppm [6] | pest or weed control at 0.1 ppm [7] | pest or weed control at 1 ppm [7] | pest or weed control at 10 ppm [7] | pest or weed control at 1 ppm ([8]; 24 h) | pest or weed control at 10 ppm ([8]; 24 h) | pest or weed control at 25 ppm ([8]; 24 h)
95%: Fatality rate on Frankliniella occidentalis (%) ([1]; 1 ppm) | Fatality rate on Chilo suppressalis (%) ([6]; 0.1 ppm)
100%: Fatality rate on Frankliniella occidentalis (%) ([1]; 10 ppm) | Fatality rate on Frankliniella occidentalis (%) ([1]; 25 ppm) | Fatality rate on Plutella xylostella (%) ([2]; 0.1 ppm) | Fatality rate on Plutella xylostella (%) ([2]; 1 ppm) | Fatality rate on Plutella xylostella (%) ([2]; 10 ppm) | Fatality rate on Mythimna separata (%) ([4]; 0.1 ppm) | Fatality rate on Mythimna separata (%) ([4]; 1 ppm) | Fatality rate on Mythimna separata (%) ([4]; 10 ppm) | Fatality rate on Chilo suppressalis (%) ([6]; 1 ppm) | Fatality rate on Chilo suppressalis (%) ([6]; 10 ppm)
